Results: ChEMBL document CHEMBL1201862, “PubChem BioAssay data set” (2004)
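Results reflect a 48-hour exposure of cells in 96-well plates to compound at five concentrations. Abbreviation: GI50, concentration required for 50% inhibition of growth.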 Active and inactive are the calls of the source. Cut-off read from the data, not from the text of the source: active = GI50 up to about 1.1 µM and inactive = higher.

How the values were obtained:
Test in all cases: growth of human tumour cells (NCI), 48 h
HT-29 = test system: HT-29
OVCAR-4 = test system: OVCAR-4
SNB-19 = test system: SNB-19
MDA-MB-231 = test system: MDA-MB-231
A549 = test system: A549
HCT-15 = test system: HCT-15
UACC-62 = test system: UACC-62
HL-60 = test system: HL-60
UO-31 = test system: UO-31
HOP-92 = test system: HOP-92
786-0 = test system: 786-0
NCI-H226 = test system: NCI-H226
PC-3 = test system: PC-3
CCRF-CEM = test system: CCRF-CEM
K562 = test system: K562
SR = test system: SR
ACHN = test system: ACHN
SW-620 = test system: SW-620
SN12C = test system: SN12C

Row | Compound | GI50 (HT-29) | GI50 (OVCAR-4) | GI50 (SNB-19) | GI50 (MDA-MB-231) | GI50 (A549) | GI50 (HCT-15) [µM] | GI50 (UACC-62) | GI50 (HL-60) | GI50 (UO-31) | GI50 (HOP-92) | GI50 (786-0) | GI50 (NCI-H226) | GI50 (PC-3) | GI50 (CCRF-CEM) | GI50 (K562) | GI50 (SR) | GI50 (ACHN) | GI50 (SW-620) | GI50 (SN12C)
1 | O=C(O)C[S+]([O-])c1ccc2c3c(cccc13)C(=O)c1ccccc1-2 (centres undefined) | > 100 µM (inactive) | > 100 µM (inactive) | > 100 µM (inactive) | > 100 µM (inactive) | > 100 µM (inactive) | > 100 | > 100 µM (inactive) | > 100 µM (inactive) | > 100 µM (inactive) | > 100 µM (inactive) | > 100 µM (inactive) | > 100 µM (inactive) | > 100 µM (inactive) | > 100 µM (inactive) | > 100 µM (inactive) | > 100 µM (inactive) | > 100 µM (inactive) | > 100 µM (inactive) | > 100 µM (inactive)
2 | O=C(CSc1n[nH]c(=O)[nH]c1=O)NNC(=O)c1cccc2nc3ccccc3nc12 | 49.4 µM (inactive) | > 100 µM (inactive) | 64.1 µM (inactive) | > 100 µM (inactive) | 39.4 µM (inactive) | 72.8 | > 100 µM (inactive) | > 100 µM (inactive) | – | > 100 µM (inactive) | > 100 µM (inactive) | 90.4 µM (inactive) | > 100 µM (inactive) | > 100 µM (inactive) | > 100 µM (inactive) | > 100 µM (inactive) | > 100 µM (inactive) | > 100 µM (inactive) | 94.8 µM (inactive)
3 | COc1ccc(C2=Nn3c(nc4sc(-c5ccccc5)cc4c3=O)SC2)cc1 | > 100 µM (inactive) | – | – | > 100 µM (inactive) | > 100 µM (inactive) | > 100 | > 100 µM (inactive) | > 100 µM (inactive) | > 100 µM (inactive) | > 100 µM (inactive) | 36.9 µM (inactive) | > 100 µM (inactive) | > 100 µM (inactive) | > 100 µM (inactive) | > 10 µM (inactive) | > 100 µM (inactive) | 7.35 µM (inactive) | 37.3 µM (inactive) | > 100 µM (inactive)
4 | C=C(Br)C/N=C/N(C)C | > 100 µM (inactive) | > 100 µM (inactive) | > 100 µM (inactive) | > 100 µM (inactive) | > 100 µM (inactive) | > 100 | > 100 µM (inactive) | > 100 µM (inactive) | > 100 µM (inactive) | > 100 µM (inactive) | > 100 µM (inactive) | > 100 µM (inactive) | > 100 µM (inactive) | > 100 µM (inactive) | > 100 µM (inactive) | > 100 µM (inactive) | > 100 µM (inactive) | – | > 100 µM (inactive)
5 | C=CCc1cccc2cc(C(=O)Nc3nc(C45CC6CC(CC(C6)C4)C5)cs3)c(=O)oc12 | 49.8 µM (inactive) | 21 µM (inactive) | 26.1 µM (inactive) | 23.4 µM (inactive) | 49.9 µM (inactive) | 67 | – | 34 µM (inactive) | 10.8 µM (inactive) | 16 µM (inactive) | 23.2 µM (inactive) | 29.1 µM (inactive) | 29.6 µM (inactive) | 64.3 µM (inactive) | 27.4 µM (inactive) | 28.9 µM (inactive) | 17 µM (inactive) | 31.7 µM (inactive) | 45.2 µM (inactive)
6 | CC(C)CC(NC=O)C(=O)NC(Cc1ccccc1)NC(=O)CNC(=O)C(C)NC(=O)OC(C)(C)C (centres undefined) | > 100 µM (inactive) | > 100 µM (inactive) | > 100 µM (inactive) | > 100 µM (inactive) | > 100 µM (inactive) | > 100 | > 100 µM (inactive) | > 100 µM (inactive) | > 100 µM (inactive) | > 100 µM (inactive) | > 100 µM (inactive) | > 100 µM (inactive) | > 100 µM (inactive) | – | > 100 µM (inactive) | > 100 µM (inactive) | > 100 µM (inactive) | > 100 µM (inactive) | > 100 µM (inactive)
7 | COCCN(C(=O)c1ccccc1)C1CCC2(SCCS2)c2[nH]c3ccccc3c21 (centres undefined) | 49.4 µM (inactive) | – | 89.5 µM (inactive) | 57.7 µM (inactive) | 26.2 µM (inactive) | 28.8 | – | 14.9 µM (inactive) | 40.7 µM (inactive) | 20.1 µM (inactive) | 60.8 µM (inactive) | > 100 µM (inactive) | 20 µM (inactive) | 29.8 µM (inactive) | 15.9 µM (inactive) | 29.7 µM (inactive) | 37.5 µM (inactive) | 33.3 µM (inactive) | 40.2 µM (inactive)
8 | C=CC(C)(C)N[C@@H](C(=O)N1CCC[C@H]1c1nc(-c2nc(C(=O)OCC=C(C)C)c(C)o2)c(C)o1)C(C)C | 19.1 µM (inactive) | 22.8 µM (inactive) | 19.7 µM (inactive) | 21.3 µM (inactive) | 29.9 µM (inactive) | 22 | 18 µM (inactive) | 20.6 µM (inactive) | 14.3 µM (inactive) | 17.5 µM (inactive) | 19.5 µM (inactive) | 17 µM (inactive) | 25.5 µM (inactive) | 11.7 µM (inactive) | 36.5 µM (inactive) | 18.1 µM (inactive) | 29.4 µM (inactive) | 22.3 µM (inactive) | 18.5 µM (inactive)
